According to PMC5349447, “Applying a high-throughput fluorescence polarization assay for the discovery of chemical probes blocking La:RNA interactions in vitro and in cells” (PLoS ONE, 2017):
Entries after “also recorded” stand apart in the source; their conditions may differ.

How the values were obtained:
La-WT:fD1-RNA complex = tested on: T1, La-WT:fD1-RNA complex; assay: EMSA, compound competition, La-WT:fD1; format: binding, human; conditions: La-WT 60 nM, fD1 50 nM
T1 construct: His; made in house; host or cells: E. coli BL21
Experimental: (§1) 12% native TBE polyacrylamide gels were prepared in a Mini-PROTEAN Tetra Handcast System (BioRad). The gel was pre-run for 30 min at 140 V in 1x TBE buffer (45 mM Tris/HCl pH 8.5, 45 mM boric acid, 1 mM EDTA). To prepare the RNA-mix, fluorescence labeled RNA oligoribonucleotides (oligos) were diluted in fluorescence polarization buffer (20 mM Tris/HCl (pH 7.4), 150 mM NaCl, 3.0 mM MgCl2, 0.5 mM EDTA, 0.05% (v/v) IGEPAL), mixed for 10 min at 80°C, and then immediately placed on ice for at least 5 min. All RNA oligos were used at a final concentration of 50 nM. Recombinant La protein was diluted in D-buffer (20 mM Tris/ HCl (pH 7.4), 150mM NaCl, 3mM MgCl2, 0.5mM EDTA, 5% glycerol) and placed on ice until use.
La titration was performed at final concentrations of 20, 40, 60, 100, 200, 300, 400, 500, 600 nM La. Three different La concentrations were used for compound studies: 60 nM for fD1 RNA, 200 nM for fPolyU RNA, and 150 nM for TOPf RNA studies. Two μl of diluted compound (diluted in 100% DMSO) or 2 μl 100% DMSO (control reaction) was combined with 8 μl La-mix in a 96-well plate. 10 μl RNA-mix was added, mixed for 2 min, and incubated for 10 min at RT in the dark. Final concentrations in the reaction: 18 mM Tris/HCl (pH 7.4), 135 mM NaCl, 2.7 mM MgCl2, 0.45 mM EDTA, 0.025% (v/v) IGEPAL, 2% glycerol, 10% DMSO). Samples were loaded onto the pre-run gel without any loading buffer. Gels were run at 160 V for 40 min in the dark. The gels were carefully transferred to a clear plastic wrap and scanned using a Typhoon FLA900 imager. The La-RNA complex (La-RNP) formation was quantified using the ImageQuant TL software.
Next we used our established EMSA to test whether compound C2 and C6 can compete against the three RNA oligos: fD1, fPolyU, and TOPf. All of the EMSA reactions were loaded in the following order: lane 1 contains the RNA oligo alone; lane 2 contains the RNA oligo plus La protein at concentration that shifts 50% of the RNA oligo (positive control); lanes 3–9 contain the RNA oligo, La protein and decreasing concentrations of the compound; and lane 10 contains the RNA oligo and the highest compound concentration (negative control).

La-RRM1+2:fD1 complex = assay: EMSA, compound competition, La-RRM1+2:fD1; format: binding, human; conditions: La-RRM1+2 60 nM, fD1 50 nM
Experimental: as §1
(§2) La titration was performed at final concentrations of 20, 40, 60, 100, 200, 300, 400, 500, 600 nM La. Three different La concentrations were used for compound studies: 60 nM for fD1 RNA, 200 nM for fPolyU RNA, and 150 nM for TOPf RNA studies. Two μl of diluted compound (diluted in 100% DMSO) or 2 μl 100% DMSO (control reaction) was combined with 8 μl La-mix in a 96-well plate. 10 μl RNA-mix was added, mixed for 2 min, and incubated for 10 min at RT in the dark. […] The La-RNA complex (La-RNP) formation was quantified using the ImageQuant TL software. […]

La:fPolyU complex = tested on: T2, La:fPolyU complex; assay: EMSA, compound competition, La-WT:fPolyU; format: binding, human
T2 construct: His; made in house; host or cells: E. coli BL21
Experimental: as §1, §2

SCC 22B cells = assay: Cell toxicity, CyQUANT cell number, SCC 22B; format: cell-based, human; conditions: for effect on SCC 22B cell numbers: 12.5-150 μM
Experimental: (§3) Normal fibroblast MRC5 and human embryonic kidney HEK293 cells were purchased from ATCC. Head and neck squamous cell carcinoma cell lines UM-SCC 22A (SCC 22A) and UM-SCC 22B (SCC 22B) were described elsewhere. MRC5 cells were cultured in EMEM plus 10% FBS; SCC 22A, SCC 22B, and HEK293 cells were cultured in advanced DMEM (Gibco) containing 2 mM L-glutamine (Life Technology) and 10% FBS. All cell lines were tested for mycoplasma contamination by applying a MycoSensor PCR Assay kit according to the manufacturer’s instructions (Agilent Technologies).
(§4) To test for cell toxicity the compounds were dissolved in 100% DMSO to a concentration of 100 mM. Subsequently, compounds were diluted in media to 10 mM (10% DMSO), 1 mM (1% DMSO) and tested at 150, 125, 100, 75, 50, 25 μM in SCC 22B and MRC5 cells. To reach this concentration compounds (stock 1 mM, 1% DMSO) were diluted in the cell culture dish (96-well format, 100 μl final volume) as follows: 150 μM = 6.7 fold (final DMSO: 0.15%); 125 μM = 8.0 fold (final DMSO: 0.125%); 100 μM = 10 fold (final DMSO: 0.1%); 75 μM = 13.3 fold (final DMSO: 0.075%); 50 μM = 20 fold (final DMSO: 0.05%); and 25 μM = 40 fold (final DMSO: 0.025%). As a control the highest DMSO concentration of 0.15% was used. Cells were cultured in appropriate media (see above) for 48h. Subsequently, cells were washed twice with 1x PBS and quantified after staining with fluorescence dye (CyQUANT®, Life Technologies). For this experiments 3x10^4 of MRC5 and 1x10^4 SCC 22B cells were plate the day before the experiment.

MRC5 cells = assay: Cell toxicity, CyQUANT cell number, MRC5; format: cell-based, human; conditions: 48 h, up to 150 μM
Experimental: as §3, §4

| SMILES | concentration impairing La:fD1 complex formation (EMSA) (La-WT:fD1-RNA complex; highest concentration tested) [mM] | concentration blocking La-RRM1+2:fD1 complex formation (EMSA) (La-RRM1+2:fD1 complex) [mM] | concentration impairing La:PolyU complex formation (EMSA) (La:fPolyU complex; La-WT 200 nM, fPolyU 50 nM, highest concentration tested) [mM] | effect on SCC 22B cell numbers (SCC 22B cells; 48 h) | toxic effect on MRC5 cells (normal fibroblasts) (MRC5 cells) | competition for La:fD1 interaction (EMSA), in words (La-WT:fD1-RNA complex) | tolerance by SCC 22B cells (SCC 22B cells; 50 μM, 48 hours) | cytotoxic concentration in SCC 22B cells (SCC 22B cells; 48 h) | selectivity: cancer cell numbers compared to effect on normal MRC5 cells (SCC 22B cells; SCC 22B versus MRC5, 48 h) | concentration inhibiting La:fD1 complex formation (EMSA) (La-WT:fD1-RNA complex) [µM] | competition for La:fPolyU complex formation (EMSA), in words (La:fPolyU complex; compared with La:fD1 and La:TOPf) |
| --- | --- | --- | --- | --- | --- | --- | --- | --- | --- | --- | --- |
| O=C(O)c1ccccc1C(=O)c1ccc(O)cc1O [C2, 2-(2,4-dihydroxybenzoyl)benzoic acid] | 10 | 5 | 10 | no effect | no toxic effect |  |  |  |  |  |  |
| Cc1ccc(C(=O)c2ccccc2C(=O)O)c(O)c1 [C2.01, 2-(2-hydroxy-4-methylbenzoyl)benzoic acid] |  |  |  |  | no toxic effect | lower concentration; also recorded: weak competitor | well tolerated | higher than 50 μM | preferentially reduced cancer cell numbers |  |  |
| CCOC(=O)c1ccc2c(c1)C1C=CCC1C(C(=O)O)N2 (stereo not drawn) [C6, 8-(ethoxycarbonyl)-3a,4,5,9b-tetrahydro-3Hcyclopenta[c]quinoline-4-carboxylic acid] |  | 0.01 |  | reduced SCC 22B cell numbers even at low concentrations | toxic effect |  |  |  |  | 10 | weaker competitor |
